Reference: patent US20160089319A1, “ACTIVES FOR STIMULATING DIFFERENTIATION OF KERATINOCYTES TO LIGHTEN HYPERPIGMENTED SKIN” (ELC MANAGEMENT LLC, priority 2014, published 2016)

Tested on: basement membrane in hyperpigmented lesions
Assay: Further studies by the inventors on morphology of the basement membrane in hyperpigmented lesions (results not shown)
Format: in vivo
Conditions: formulation containing the substance but no Phytofix

Substance: sodium ribonucleic acid
- improvement of the morphology of the basement membrane: no improvement of the morphology of the basement membrane
